Where no end group is shown, it is not given here.
Assays:
[1] = tested on: neural stem cells collected from a rat; details: peptide 1 μM in culture broth, 24 hours
Protocol: That is, these sample peptides were added to a culture broth of neural stem cells collected from a rat, and incubated. The amount of peptide added was adjusted so that the peptide concentration within the culture broth became 1 μM for each peptide.
In addition, the same sample was subjected to evaluation with a neuronal differentiation induction marker. That is, using tubulin as a marker for identifying neurons, the presence or absence of tubulin (i.e., of neurons) in the culture broth was determined by a fluorescent antibody method that uses a fluorescent dye-labeled anti-tubulin antibody for identifying this tubulin. In addition, using glial fibrillary acidic protein (GFAP), which is a cytoskeletal protein in glial cells, as a marker for identifying glial cells, the presence or absence of GFAP (i.e., of glial cells) in the culture broth was determined by a fluorescent antibody method that uses a fluorescent dye-labeled anti-GFAP antibody for identifying this GFAP.

[2] = tested on: human iPS cells (cell line: 201B2); assay: iPS cell membrane permeability of FITC-labeled peptides (FITC fluorescence intensity, confocal laser scanning microscopy); format: cell-based; details: 1 hour; for Relative Intensity (FITC fluorescence): relative to Comparative Sample 2 at 0.5 μM = 1, average of five measurements; for introduction into artificial pluripotent stem cells: 0.5 μM or 1 μM
Protocol: Next, the abilities of the three resulting synthesized peptides to pass through the cell membranes of artificial pluripotent stem cells (iPS cells) were investigated. Fluorescein isothiocyanate (FITC) was added beforehand to the N-terminus of each of the synthesized peptides.
The human iPS cells (cell line: 201B2) used in this example were procured from Kyoto University. The mouse embryo fibroblasts (cell line: SNL76/7) used as feeder cells were procured from ECACC, which supply the cells on commission from Dr. Allan Bradley.
The iPS cells thus acquired were cultured, using a human embryonic stem cell culture medium (DMEM/F12, containing 20% knockout serum replacement (KSR), 2 mM L-glutamine, 0.1 mM non-essential amino acids, 0.1 mM 2-mercaptoethanol, 50 units/50 μg/ml penicillin/streptomycin, and 4 ng/ml bFGF), in a 37° C., 5% CO2 environment on a gelatin-coated dish seeded with the above SNL feeder cells that had been mitomycin C-treated.
The cultured iPS cells were then treated with a CTK solution (containing 1 mg/ml collagenase IV, […], […] and 20% KSR), and recovered. Next, a suspension of microaggregates was prepared by pipetting, dispensed into each well of a commercial gelatin-coated 4-well chamber (culture) slide that had been seeded with mitomycin C-treated SNL feeder cells, and cultured in a 37° C., 5% CO2 environment for about 6 days.
The culture solution in each well was then replaced with a cell culture obtained by adding a peptide stock solution (1 mM) of any one of the above Sample 6 and Comparative Samples 1 and 2 that had been pre-labeled with FITC to a specified concentration (i.e., to a final concentration within the medium of 0.5 μM or 1 μM), and the cell culture was cultured for 1 hour in a 37° C., 5% CO2 environment.
Next, after washing with PBS, the cells within the wells were fixed with cold methanol, and were encapsulated using a DAPI-containing antifade reagent (Invitrogen).
Localization of the FITC-labeled peptides was confirmed using a confocal laser scanning microscope. Specifically, the FITC fluorescence intensity in each test group (the respective encapsulated samples to be measured) was measured by confocal laser scanning microscopic analysis. The measurement conditions were as follows.
Argon laser excitation wavelength: 488 nm
Objective lens: Plan-Apochromat 20×/0.75
The relative fluorescence intensity of each test group was calculated relative to a value of 1 for the fluorescence intensity of the test group in which Comparative Sample 2 was added to a final concentration within the culture medium of 0.5 μM. Measurement was independently carried out five times, and the average value of the five measurements was treated as the fluorescence intensity. In addition, micrographs obtained using a confocal laser scanning microscope to observe iPS cell cultures to which Sample 6 or Comparative Sample 2 was added to a final concentration of 1 μM (the above encapsulated test groups) are shown respectively in FIG. 7 (Sample 6 addition group) and FIG. 8 (Comparative Sample 2 addition group).

Substance	differentiation to glial cells (GFAP marker) [1]	neuronal differentiation (differentiation from neural stem cells to neurons, tubulin marker) [1]	Relative Intensity (FITC fluorescence) ([2]; 0.5 μM final concentration)	introduction into artificial pluripotent stem cells [2]	Relative Intensity (FITC fluorescence) ([2]; 1.0 μM final concentration)
KKRTLRKNDRKKR [Comparative Sample 1]	not observed	not observed			
RRRRRRRRRGTLKERCLQVVRSLVK [Comparative Sample 3, VHL peptide linked through a single glycine residue to the C-terminal end of polyarginine R9]			<1	substantially not introduced	2.8
SLQYLCRFVIRQYTRKKRTLRKNDRKKR-NH2 [Sample 2, SLQYLCRFVIRQYTR-KKRTLRKNDRKKR]	not observed				
TLKERCLQVVRSLVKKKRTLRKNDRKKR [Sample 6]			13.5		23.2
TLKERCLQVVRSLVKSRRHHCRSKAKRSRHH [Comparative Sample 2, VHL peptide linked to the N-terminal end of hPER1-NLS]			1	substantially not introduced	4.8

Reference: patent publication US20130005034A1, “ARTIFICIAL PEPTIDE AND USE THEREOF” (TOAGOSEI CO., LTD, priority 2008, published 2013)
